This note sets out measurements from patent publication US5567724A, “Alkaline and acid phosphatase inhibitors in treatment of neurological disorders” (Cortex Pharmaceuticals, Inc., priority 1994, dated 1996).

Counter-ions that a name gives are not always drawn. Like-named read-outs stand apart in the source and are kept apart here.

In data set [1] the test system is Dorsal root ganglion cells. Nature of the data set: Vinblastine-induced toxicity in dorsal root ganglion cells, live/dead staining. Type of data set: cell-based. Particulars: Na,K-tartrate 500 μM; NGF 50 ng/ml; vinblastine 500 nM; 24 hours. As to the method:
Dorsal root ganglion cells were treated with Nerve Growth Factor (NGF) (50 ng/ml), vinblastine (500 nM) and Na,K-tartrate (500 μM) for 24 hours. Following the treatment, the dorsal root ganglion cells were stained with ethidium bromide and fluorescein diacetate to stain dead and live cells, respectively.
FIG. 5 illustrates the results of the study of Example 16. Percentage cell viability is determined from the ratio of live cells to total cell number. Each bar in […] represents the mean of 3 wells ± the standard deviation.

The procedure of data set [2]:
Human subjects diagnosed as suffering from AD are administered 50 mg of an arylimidothiazole derivative, such as levamisole, orally every eight hours for three days. The treatment is repeated every 14 days for a period of 6 months. […] A human patient diagnosed as suffering from Alzheimer's Disease is administered about 50 mg levamisole orally every eight hours for three days. The treatment is repeated every 14 days for a period of 6 months. […] Human subjects diagnosed as suffering from AD are administered 0.05 mg/kg of an arylimidothiazole derivative, such as levamisole, orally every day for a period of six months. […] A human patient diagnosed as suffering from Alzheimer's Disease is identified as having deteriorating symptoms of the disease. The patient is administered about 10 mg levamisole orally once per day for a period of six months.

Data set [3] has as its system rat embryonic hippocampal neurons. The settings on record: 50 μM β-amyloid 25-35. As to the method: To further determine the effect of alkaline phosphatase inhibitors on βamyloid peptide toxicity, rat embryonic hippocampal neurons in culture were exposed to 50 μM β-amyloid 25-35 in the presence of levamisole concentrations of 250 μM and 500 μM.
In data set [4] the test system is Porcine kidney alkaline phosphatase. Nature of the data set: Alkaline phosphatase assay with pNPP substrate, porcine kidney enzyme. The format is biochemical. The settings on record: pNPP 5 mM, pH 5.5 lysis buffer. How it is done:
(§1) Porcine kidney (0.01 U) and calf intestinal (0.002 U) alkaline phosphatases were assayed in the presence of levamisole (200 μM) or vanadate salt (5-500 μM) using pNPP (5 mM) as substrate. The assay was carried out in pH 5.5 lysis buffer. Each bar in FIG. 4 represents the mean of quadruplicates ± the standard deviation. The results of the experiment of Example 4 are illustrated in FIG. 4. […] The effect of treatment on humans with AD using arylimidothiazole derivatives having alkaline phosphatase inhibitory activity is described below in Examples 5-9.

The subject of data set [5] is calf intestinal alkaline phosphatase. Nature of the data set: Alkaline phosphatase assay with pNPP substrate, calf intestinal enzyme. Type of data set: biochemical. Particulars: pNPP 5 mM, pH 5.5 lysis buffer. How it is done:
as §1

For a further data set, the system named is HT4 neurotumor cells. Nature of the data set: β-amyloid peptide toxicity in HT4 neurotumor cells, LDH release. Type of data set: cell-based, rat. Particulars: 100 μM inhibitor; 50 μM β-amyloid peptide 25-35 and 250 μM quisqualate; 24 hours after treatment. As to the method:
HT4 neurotumor cells were treated with 50 μM β-amyloid peptide 25-35 and 250 μM quisqualate. The cells were also treated with 100 μM of the following alkaline phosphatase inhibitors: 1,10 phenanthroline, phenylalanine, IBMX, bromotetramisole, purine, and theophylline. The death of the neurons was determined by measuring LDH activity in the media 24 hours after treatment. The release of LDH from the cells into the surrounding media indicates cell death.
FIG. 1 illustrates the results of the study of Example 1. […] Cells subjected to no treatment had only a low level of LDH activity.

Another data set relates to Hippocampal neurons. Nature of the data set: Okadaic acid with β-amyloid on hippocampal neurons, LDH efflux. Type of data set: cell-based. The settings on record: 50 nM okadaic acid with 50 μM β-amyloid (β25-35), 24 hours, DME medium, 37° C. How it is done: Hippocampal neurons were treated with 50 μM β-amyloid (β25-35)and 50 nM okadaic acid for 24 hours in Dulbeccois Modified Eagle's (DME) medium at 37° C. Following the 24-hour treatment period, an aliquot of media was removed for determination of LDH efflux from the neurons, which is an indicator of cell death. Each bar in FIG. 3, except the bar representing okadaic acid alone, represents the mean of 4 wells ± the standard deviation. The bar representing okadaic acid alone represents the mean of 2 wells ± the standard deviation.

As to `O=C(O)C(O)C(O)C(=O)O` (single isomer, unassigned) [Na,K-tartrate], the “percentage cell viability in the presence of vinblastine” value in data set [1] is given as “significantly increased”.
`c1ccc([C@H]2CN3CCSC3=N2)cc1` [levamisole, (-)-(S)-2,3,5,6-tetrahydro-6-phenylimidoazide [2,1-b]thiazole monohydrochloride]: the “symptoms of AD” value in data set [2] (50 mg orally every eight hours for three days, repeated every 14 days for 6 months) is recorded as “lessened”; in data set [2] (about 10 mg orally once per day for six months), “decrease”. In data set [3] (levamisole 250 μM), the “death of the neurons, as indicated by the release of LDH” value is “reduced”. Besides, the LDH activity result in data set [3] (levamisole 500 μM) is recorded as “reduced”. Moreover, the “Inhibition of porcine kidney alkaline phosphatase activity” value in data set [4] (levamisole 200 μM) is given as “unexpectedly high”. In addition, the “Inhibition of calf intestinal alkaline phosphatase” value in data set [5] (levamisole 200 μM) is given as “little effect”.
For the compound `CC(C)Cn1c(=O)n(C)c(=O)c2[nH]cnc21` [IBMX], in the data set with HT4 neurotumor cells, the “LDH activity in the media (cell death)” value is “most effective compound tested”.
For the compound `C=C1[C@@H](O)[C@@H]2O[C@]3(CC[C@H](/C=C/[C@@H](C)[C@@H]4CC(C)=C[C@@]5(O[C@H](C[C@@](C)(O)C(=O)O)CC[C@H]5O)O4)O3)CC[C@H]2O[C@@H]1[C@@H](O)C[C@H](C)[C@H]1O[C@@]2(CCCCO2)CC[C@H]1C` [okadaic acid], the “hippocampal neuronal injury (LDH efflux)” value in the data set with Hippocampal neurons was “causes hippocampal neuronal injury”.
Take `[O]=[V]([O-])([O-])[O-]` [vanadate]: the “Inhibition of porcine kidney alkaline phosphatase activity” value in data set [4] (vanadate salt 5-500 μM) is given as “appear to inhibit”. Also, the “Inhibition of calf intestinal alkaline phosphatase” value in data set [5] (vanadate 100 μM) is “significantly inhibited”.
